The text below walks through data of patent US20150045433A1, “METHODS AND COMPOSITIONS FOR INDUCING PHYSIOLOGICAL HYPERTROPHY” (THE REGENTS OF THE UNIVERSITY OF COLORADO, A BODY CORPORATE, priority 2009, published 2015).

For assay [1], the system named is neonatal rat ventricular myocytes (NRVMs). The assay is described as follows: NRVM cell size / hypertrophy (a-actinin staining, Coulter Counter). It is filed as cell-based. The procedure:
Primary culture cardiomyocytes prepared from neonatal rats were treated with fasted and post-fed serum samples. Twenty four hours later the cells were removed from the culturing dish and analyzed for changes in cell size by immunostaining or by automatic analyzer such as Coulter Counter.
In other experiments, neonatal rat cardiac myocytes (NRVMs) were prepared according to the method described in Waspe et al. (1990). In brief, cells were obtained from the hearts of Sprague-Dawley rat pups (1-2 days old) by trypsinization and plated in MEM medium (Hanks' salts) with 5% calf serum. After 48 h in culture, cells were transferred to serum-free medium supplemented with transferring and insulin (each 10 μg/ml). Cells were maintained in 60- or 35-mm culture dishes at a density of 200,000 cells/ml. Contaminating non-muscle cells were kept at <10% by pre-plating and addition of 0.1 mM bromodeoxyuridine to the medium though day 3 of culture.
Before treating the cells, serum samples were thawed and heat inactivated at 58° C. for 30 min. […]
Cardiomyocytes grown on gelatin-coated coverslips were infected with Ad Aqp7 for 48 h. […] Images were captured at a 40x magnification with a fluorescence microscope (Nikon E800) equipped with a digital camera (AxioCam) and Axiovision, version 3.0.6.36 imaging software (Carl Zeiss, Thornwood, NY). The surface areas were measured using NIH image software (Image J) and at least 100 individualized cells were analyzed per each experiment. Cell size was also determined by particle size analyzer, Coulter Counter Multisizer 3 ([…]).
Inhibition of fatty acid transport blocks serum-induced NRVM hypertrophy. […] NRVMs were treated with serum (2%) in the presence and absence of SSO (400 μM) for 48 hours and cell size was determined using a Coulter Counter.
Individual fatty acids were complexed to BSA as described by de Vries et al. (1997), which is hereby incorporated by reference. […] NRVM gene expression and mean cell diameter were determined after either 24 or 48 hours, respectively. […]

A further assay relates to AQP7 mRNA. Nature of the assay: AQP7 mRNA expression in neonatal rat cardiomyocytes by qPCR. The class given is cell-based. The note with it: for AQP7 mRNA expression: fasted serum (2%) plus individual fatty acid (C14: 10, 33, 100 μM; C16: 33, 100, 300 μM; C16:1: 3, 10, 33 μM), 48 hours. The procedure:
Individual fatty acids were complexed to BSA as described by de Vries et al. (1997), which is hereby incorporated by reference. […] An equal volume of Na2CO3 (10 mM) was added and the ethanol was evaporated at 60° C. under continuous N2 flow. The fatty acid mix was added dropwise to 10% BSA. BSA/fatty acid complexes were then dialyzed four times at 4° C. during 4-6 hours in NH4HCO3 (0.1 M). Complexes were then frozen, lyophilized overnight, and resuspended in NRVM rinse media (MEM/PB12/Hepes) for a final concentration of 7 mM. NRVMs were treated with fasted serum, 1 day post-fed serum, or fasted serum+individual fatty acids. […] NRVM gene expression and mean cell diameter were determined after either 24 or 48 hours, respectively.
Dose-dependent effects of individual fatty acids on AQP7 expression. […] Fasted serum (2% final) and fatty acids were diluted in serum-free media (MEM/Hepes/PB12) containing insulin, trnsferrin, BSA, and BrdU. Cells were treated for 48 hours and AQP7 mRNA expression was determined using qPCR with 18S as the normalizing gene.
siRNA studies. Rat AQP7 mRNA sequence was analyzed for potential small interfering RNA (siRNA) target regions using a sequence identification tool (Ambion, Inc., Austin, Tex.). Potential target sequences were transcribed from oligonucleotide templates using the Silencer siRNA Construction kit (Ambion, Inc., Austin, Tex.). To test for the ability of siRNAs to effectively reduce AQP7 expression, NRVMs were transfected with siRNA (100 nM) using Lipofectamine Plus reagent as specified by the manufacturer (Invitrogen, Carlsbad, Calif.). Several rat AQP7-specific siRNA sequences (#1: 5′-[…]-3′ (SEQ ID NO:22); #2: […]-3′ (SEQ ID NO:23); #3 5′-[…]-3′ (SEQ ID NO:24)) were tested for efficacy of gene knockdown using qPCR. […] A nonspecific siRNA (Silencer Negative Control #2; Ambion, Inc., Austin, Tex.) was used as a negative control.

Assay [2] deals with fetal gene program (β-myosin heavy chain, ANF, BNP, skeletal actin, SERCA). Nature of the assay: Pathologic fetal gene expression in NRVMs by qPCR. It is filed as cell-based, rat. The note with it: 48 hours. The procedure:
FIG. 4. […] Neonatal rat cardiomyocytes were untreated (lightest gray bars) or treated with fasted serum (light gray bars), post-fed serum (black bars) and Phenylephrin (PE; dark gray bars). After 48 hours, RNA was isolated and cDNA was obtained by standard procedures. The expression of several pathologic hypertrophic markers was measured by quantitative real-time PCR including β-myosin heavy chain, atrial natriuretic factor (ANF), brain natriuretic peptide (BNP), skeletal actin and sarcoplasmic reticulum calcium ATPase (SERCA).
Total RNA was extracted by TRizol (Invitrogen). 0.5 μg of RNA was reverse transcribed into cDNA using the SuperScript III first-strand cDNA synthesis kit (Invitrogen). Typically, 0.1 ng of cDNA, 12.5 nM of each primer, and Power SYBER Green PCR Master Mix (Applied Biosystems, Foster City, Calif.) were used in the reverse transcription (RT)-PCR reactions. Reactions were performed using the ABI7300 system. The primers used are presented on Table 1.
Total RNA was extracted from mouse or python ventricle and NRVMs using TRI Reagent (Invitrogen). 0.5 to 2.0 μg of RNA was reverse transcribed into cDNA using the SuperScript III first-strand cDNA synthesis kit (Invitrogen). Quantitative real time PCR reactions were performed using the ABI7300 system (Applied Biosystems, Foster City, Calif., USA) and the Power SYBR Green PCR Master Mix (Applied Biosystems). […]
A general note: In qPCR the cycle at which signal appears reflects the starting amount.

The structures appear in SMILES notation. Entries after “also recorded” stand apart in the source; their conditions may differ.

On to `CCCCCCCCCCCCCC(=O)O` [C14, tetradecanoic acid], for which the cell size entry in assay [1] (fasted plasma (2%) supplemented with fatty acids at 1 DPF levels (C14 40 μM; C16 137 μM; C16:1 7.5 μM), 48 hours) is “significant increase in cell size”. Also, the “Aqp7 mRNA levels” value in the assay on AQP7 mRNA (fasted plasma supplemented with FFAs, relative to 1 DPF plasma) is listed as “comparable levels observed with 1 DPF plasma”. Moreover, the “AQP7 mRNA expression” value in the assay with AQP7 mRNA is on record as “tended to increase AQP7 mRNA expression in a dose-dependent manner”. As to `CNC[C@H](O)c1cccc(O)c1` [phenylephrine], the “activation of fetal gene program / pathological gene expression” value in assay [2] is “robust activation of pathological patterns of gene expression”.

Take `CCCCCC/C=C\CCCCCCCC(=O)O` [C16:1, (z)-9-hexadecenoic acid]: the “AQP7 mRNA expression” value with AQP7 mRNA is recorded as “tended to increase AQP7 mRNA expression in a dose-dependent manner”.

With `CCCCCCCCCCCCCCCC(=O)O` [C16, hexadecanoid acid], in the assay with AQP7 mRNA, the “AQP7 mRNA expression” value is listed as “tended to increase AQP7 mRNA expression in a dose-dependent manner”. Take `CCCCCCCC/C=C\CCCCCCCC(=O)ON1C(=O)CC(S(=O)(=O)O)C1=O` (centres unmarked) [SSO, sulfo-N-succinimidyl oleate]: the “effect on cell growth (hypertrophy) induced by fed serum/plasma” value in assay [1] (SSO 400 μM, 2% 1DPF fed serum/plasma) was “completely blocks the cell growth induced by the fed-serum; also recorded: completely blocked the pro-hypertrophic effect of fed plasma; also recorded: significantly reduced”. Also, the “cell size, no serum (control)” value in assay [1] (presence of SSO, no serum) is on record as “smaller”.
